Experimental data as given in the NIST ThermoML archive (doi:10.1021/je060271a).
± gives the expanded uncertainty stated by the source.

Details: 283.15 K, Liquid, Vibrating tube method

CCCCCCCC(=O)OCC(COC(=O)CCCCCCC)(COC(=O)CCCCCCC)COC(=O)CCCCCCC [pentaerythritol tetraoctanoate]
mass density (24659 kPa): 983.6 ± 1.2 kg/m3
mass density (24685 kPa): 983.7 ± 1.2 kg/m3
mass density (24711 kPa): 983.7 ± 1.2 kg/m3
mass density (24742 kPa): 983.8 ± 1.2 kg/m3
mass density (24769 kPa): 983.8 ± 1.2 kg/m3
mass density (24795 kPa): 983.8 ± 1.2 kg/m3
mass density (24827 kPa): 983.7 ± 1.2 kg/m3
mass density (24853 kPa): 983.8 ± 1.2 kg/m3
mass density (24885 kPa): 983.8 ± 1.2 kg/m3
mass density (24912 kPa): 983.7 ± 1.2 kg/m3
mass density (24938 kPa): 983.8 ± 1.2 kg/m3
mass density (24965 kPa): 983.8 ± 1.2 kg/m3
mass density (24997 kPa): 983.8 ± 1.2 kg/m3
mass density (25024 kPa): 983.8 ± 1.2 kg/m3
mass density (25051 kPa): 983.9 ± 1.2 kg/m3
mass density (25084 kPa): 983.9 ± 1.2 kg/m3
mass density (25110 kPa): 983.9 ± 1.2 kg/m3
mass density (25143 kPa): 983.8 ± 1.2 kg/m3
mass density (25170 kPa): 983.9 ± 1.2 kg/m3
mass density (25197 kPa): 984 ± 1.2 kg/m3
mass density (25229 kPa): 984 ± 1.2 kg/m3
mass density (25256 kPa): 984 ± 1.2 kg/m3
mass density (25284 kPa): 984 ± 1.2 kg/m3
mass density (25312 kPa): 984 ± 1.2 kg/m3
mass density (25344 kPa): 984 ± 1.2 kg/m3
mass density (25372 kPa): 984 ± 1.2 kg/m3
mass density (25405 kPa): 983.9 ± 1.2 kg/m3
mass density (25433 kPa): 984.1 ± 1.2 kg/m3
mass density (25461 kPa): 984.1 ± 1.2 kg/m3
mass density (25494 kPa): 984.1 ± 1.2 kg/m3
mass density (25521 kPa): 984.2 ± 1.2 kg/m3
mass density (25549 kPa): 984.1 ± 1.2 kg/m3
mass density (25583 kPa): 984.1 ± 1.2 kg/m3
mass density (25611 kPa): 984.2 ± 1.2 kg/m3
mass density (25639 kPa): 984.2 ± 1.2 kg/m3
mass density (25673 kPa): 984.2 ± 1.2 kg/m3
mass density (25701 kPa): 984.1 ± 1.2 kg/m3
mass density (25730 kPa): 984.4 ± 1.2 kg/m3
mass density (25758 kPa): 984.3 ± 1.2 kg/m3
mass density (25792 kPa): 984.2 ± 1.2 kg/m3
mass density (25821 kPa): 984.3 ± 1.2 kg/m3
mass density (25850 kPa): 984.3 ± 1.2 kg/m3
mass density (25884 kPa): 984.3 ± 1.2 kg/m3
mass density (25912 kPa): 984.3 ± 1.2 kg/m3
mass density (25941 kPa): 984.2 ± 1.2 kg/m3
mass density (25976 kPa): 984.3 ± 1.2 kg/m3
mass density (26004 kPa): 984.3 ± 1.2 kg/m3
mass density (26034 kPa): 984.5 ± 1.2 kg/m3
mass density (26069 kPa): 984.4 ± 1.2 kg/m3
mass density (26098 kPa): 984.3 ± 1.2 kg/m3
mass density (26126 kPa): 984.4 ± 1.2 kg/m3
mass density (26162 kPa): 984.4 ± 1.2 kg/m3
mass density (26191 kPa): 984.5 ± 1.2 kg/m3
mass density (26220 kPa): 984.4 ± 1.2 kg/m3
mass density (26250 kPa): 984.4 ± 1.2 kg/m3
mass density (26286 kPa): 984.5 ± 1.2 kg/m3
mass density (26315 kPa): 984.5 ± 1.2 kg/m3
mass density (26350 kPa): 984.6 ± 1.2 kg/m3
mass density (26380 kPa): 984.6 ± 1.2 kg/m3
mass density (26411 kPa): 984.6 ± 1.2 kg/m3
mass density (26442 kPa): 984.6 ± 1.2 kg/m3
mass density (26478 kPa): 984.6 ± 1.2 kg/m3
mass density (26508 kPa): 984.6 ± 1.2 kg/m3
mass density (26538 kPa): 984.6 ± 1.2 kg/m3
mass density (26568 kPa): 984.6 ± 1.2 kg/m3
mass density (26604 kPa): 984.5 ± 1.2 kg/m3
mass density (26634 kPa): 984.6 ± 1.2 kg/m3
mass density (26666 kPa): 984.6 ± 1.2 kg/m3
mass density (26702 kPa): 984.7 ± 1.2 kg/m3
mass density (26733 kPa): 984.7 ± 1.2 kg/m3
mass density (26770 kPa): 984.7 ± 1.2 kg/m3
mass density (26802 kPa): 984.7 ± 1.2 kg/m3
mass density (26834 kPa): 984.8 ± 1.2 kg/m3
mass density (26866 kPa): 984.8 ± 1.2 kg/m3
mass density (26897 kPa): 984.8 ± 1.2 kg/m3
mass density (26929 kPa): 984.9 ± 1.2 kg/m3
mass density (26966 kPa): 984.8 ± 1.2 kg/m3
mass density (26997 kPa): 984.8 ± 1.2 kg/m3
mass density (27034 kPa): 984.8 ± 1.2 kg/m3
mass density (27066 kPa): 984.8 ± 1.2 kg/m3
mass density (27098 kPa): 984.9 ± 1.2 kg/m3
mass density (27129 kPa): 984.9 ± 1.2 kg/m3
mass density (27167 kPa): 984.9 ± 1.2 kg/m3
mass density (27199 kPa): 985 ± 1.2 kg/m3
mass density (27237 kPa): 985.1 ± 1.2 kg/m3
mass density (27270 kPa): 984.9 ± 1.2 kg/m3
mass density (27302 kPa): 985.1 ± 1.2 kg/m3
mass density (27340 kPa): 985.1 ± 1.2 kg/m3
mass density (27372 kPa): 985 ± 1.2 kg/m3
mass density (27404 kPa): 985 ± 1.2 kg/m3
mass density (27437 kPa): 985 ± 1.2 kg/m3
mass density (27476 kPa): 985.2 ± 1.2 kg/m3
mass density (27508 kPa): 985.2 ± 1.2 kg/m3
mass density (27546 kPa): 985.1 ± 1.2 kg/m3
mass density (27579 kPa): 985.1 ± 1.2 kg/m3
mass density (27612 kPa): 985.2 ± 1.2 kg/m3
mass density (27651 kPa): 985.2 ± 1.2 kg/m3
mass density (27685 kPa): 985.1 ± 1.2 kg/m3
mass density (27718 kPa): 985.1 ± 1.2 kg/m3
mass density (27752 kPa): 985.1 ± 1.2 kg/m3
mass density (27792 kPa): 985.2 ± 1.3 kg/m3
mass density (27825 kPa): 985.3 ± 1.2 kg/m3
mass density (27859 kPa): 985.3 ± 1.2 kg/m3
mass density (27899 kPa): 985.3 ± 1.2 kg/m3
mass density (27932 kPa): 985.4 ± 1.2 kg/m3
mass density (27972 kPa): 985.3 ± 1.2 kg/m3
mass density (28007 kPa): 985.3 ± 1.2 kg/m3
mass density (28040 kPa): 985.5 ± 1.2 kg/m3
mass density (28074 kPa): 985.5 ± 1.2 kg/m3
mass density (28116 kPa): 985.4 ± 1.2 kg/m3
mass density (28150 kPa): 985.5 ± 1.2 kg/m3
mass density (28185 kPa): 985.4 ± 1.2 kg/m3
mass density (28226 kPa): 985.4 ± 1.2 kg/m3
mass density (28260 kPa): 985.5 ± 1.2 kg/m3
mass density (28302 kPa): 985.5 ± 1.2 kg/m3
mass density (28336 kPa): 985.5 ± 1.2 kg/m3
mass density (28371 kPa): 985.5 ± 1.2 kg/m3
mass density (28406 kPa): 985.5 ± 1.2 kg/m3
mass density (28448 kPa): 985.5 ± 1.2 kg/m3
mass density (28483 kPa): 985.6 ± 1.2 kg/m3
mass density (28519 kPa): 985.5 ± 1.3 kg/m3
mass density (28561 kPa): 985.6 ± 1.2 kg/m3
mass density (28596 kPa): 985.7 ± 1.2 kg/m3
mass density (28632 kPa): 985.7 ± 1.2 kg/m3
mass density (28676 kPa): 985.6 ± 1.2 kg/m3
mass density (28712 kPa): 985.7 ± 1.2 kg/m3
mass density (28748 kPa): 985.8 ± 1.2 kg/m3
mass density (28784 kPa): 985.6 ± 1.2 kg/m3
mass density (28827 kPa): 985.7 ± 1.2 kg/m3
mass density (28863 kPa): 985.8 ± 1.2 kg/m3
mass density (28900 kPa): 985.8 ± 1.2 kg/m3
mass density (28943 kPa): 985.7 ± 1.2 kg/m3
mass density (28980 kPa): 985.8 ± 1.2 kg/m3
mass density (29017 kPa): 985.8 ± 1.2 kg/m3
mass density (29061 kPa): 985.9 ± 1.2 kg/m3
mass density (29097 kPa): 985.9 ± 1.2 kg/m3
mass density (29135 kPa): 985.9 ± 1.2 kg/m3
mass density (29173 kPa): 985.9 ± 1.2 kg/m3
mass density (29217 kPa): 985.8 ± 1.2 kg/m3
mass density (29255 kPa): 985.9 ± 1.2 kg/m3
mass density (29293 kPa): 986 ± 1.2 kg/m3
mass density (29338 kPa): 986 ± 1.2 kg/m3
mass density (29375 kPa): 986 ± 1.2 kg/m3
mass density (29413 kPa): 986.1 ± 1.2 kg/m3
mass density (29458 kPa): 986 ± 1.2 kg/m3
mass density (29496 kPa): 986 ± 1.2 kg/m3
mass density (29534 kPa): 986.1 ± 1.2 kg/m3
mass density (29579 kPa): 986.1 ± 1.2 kg/m3
